Measured values taken from patent publication US12049439B2 (OrsoBio, Inc., priority 2018, dated 2024).

system: PC-3 cells; test: PC-3 Oxygen Rate Consumption (OCR) Assay; format: cell-based; settings: Homo sapiens, 0.05 h, medium with 2% FBS, OCR at 3-min post-injection normalized to % increase over DMSO-treated cells, concentration for half-maximal OCR increase, read-out: EC50-PC3-OCR-FBS-3min
In short: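 Oxygen consumption read on Seahorse XFe96: three basal measurements, then compound injection and 10 cycles over 30 min. EC50 defined as concentration giving half-maximal OCR rise, using 3-min post-injection values as % above DMSO controls, six replicates per treatment, in PC-3 cells in glucose/pyruvate medium.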

Question: `CN(C)S(=O)(=O)Nc1cc(C(F)(F)F)ccc1C(=O)NC12CCC(C#N)(CC1)CC2` [Example 163, N-(4-cyanobicyclo[2.2.2]octan-1-yl)-2-((N,N-dimethylsulfamoyl)amino)-4-(trifluoromethyl)benzamide] was tested. Which EC50 did it give?
Answer: 3.77 µM

Question: With `Cc1ccc(C(=O)NC23CC(C(F)(F)F)(C2)C3)c(NS(=O)(=O)c2ccncc2)c1` [Example 65, 4-methyl-2-(pyridine-4-sulfonamido)-N-(3-(trifluoromethyl)bicyclo[1.1.1]pentan-1-yl)benzamide] as the molecule, how does the EC50 read?
Answer: 21.8 µM

Question: For `CP(C)(=O)c1ccc(S(=O)(=O)Nc2cc(C(F)(F)F)ccc2C(=O)NC23CC4CC(CC(C#N)(C4)C2)C3)cc1` [Example 180], which EC50 is on record?
Answer: ≥ 200 µM

Question: How did the EC50 turn out when `O=C(NC12CCC(C(F)(F)F)(CC1)CC2)c1ccc(F)cc1NS(=O)(=O)C1CCS(=O)(=O)CC1` [Example 238, 2-((1,1-dioxidotetrahydro-2H-thiopyran)-4-sulfonamido)-4-fluoro-N-(4-(trifluoromethyl)bicyclo[2.2.2]octan-1-yl)benzamide] was run?
Answer: 29.7 µM

Question: `N#CC1CN(S(=O)(=O)Nc2ccc(C(F)(F)F)cc2C(=O)NC23CC(C(F)(F)F)(C2)C3)C1` [Example 234, 2-((3-cyanoazetidine)-1-sulfonamido)-5-(trifluoromethyl)-N-(3-(trifluoromethyl)bicyclo[1.1.1]pentan-1-yl)benzamide] was tested. Which EC50 did it give?
Answer: 3.86 µM

Question: For `CS(=O)(=O)c1ccc(S(=O)(=O)Nc2cc(S(F)(F)(F)(F)F)ccc2C(=O)NC23CC(C2)C3)cc1` [Example 155, N-(bicyclo[1.1.1]pentan-1-yl)-2-((4-(methylsulfonyl)phenyl)sulfonamido)-4-(pentafluoro-λ^6-sulfanyl)benzamide], which EC50 is on record?
Answer: 5.87 µM

Question: Which EC50 does the source give for `N#Cc1ccc(S(=O)(=O)Nc2cc(C(F)(F)F)ccc2C(=O)NC23CC(c4ccccc4)(C2)C3)cc1` [Example 160, 2-((4-cyanophenyl)sulfonamido)-N-(3-phenylbicyclo[1.1.1]pentan-1-yl)-4-(trifluoromethyl)benzamide] here?
Answer: 0.632 µM

Question: Which EC50 does the source give for `CS(=O)(=O)Oc1ccc(S(=O)(=O)Nc2cc(C(F)(F)F)ccc2C(=O)NC23CC(C(F)(F)F)(C2)C3)cc1` [Example 103, 4-(N-(5-(trifluoromethyl)-2-((3-(trifluoromethyl)bicyclo[1.1.1]pentan-1-yl)carbamoyl)phenyl)sulfamoyl)phenyl methanesulfonate] here?
Answer: 1.88 µM

Question: How did the EC50 turn out when `NC(=O)c1ccc(S(=O)(=O)Nc2cc(C(F)(F)F)ccc2C(=O)NC23CC(C2)C3)cc1` [Example 52, N-(bicyclo[1.1.1]pentan-1-yl)-2-((4-carbamoylphenyl)sulfonamido)-4-(trifluoromethyl)benzamide] was run?
Answer: 200 µM

Question: With `CS(=O)(=O)N1C2CCC1CC(NC(=O)c1ccc(F)cc1NS(=O)(=O)CCC(F)(F)F)C2` (centres unmarked) [Example 217, 4-fluoro-N-(8-(methylsulfonyl)-8-azabicyclo[3.2.1]octan-3-yl)-2-((3,3,3-trifluoropropyl)sulfonamido)benzamide] as the molecule, how does the EC50 read?
Answer: 112 µM

Question: With `CCS(=O)(=O)Nc1cc(C(F)(F)F)ccc1C(=O)NC12CCC(C#N)(CC1)CC2` [Example 133, N-(4-cyanobicyclo[2.2.2]octan-1-yl)-2-(ethylsulfonamido)-4-(trifluoromethyl)benzamide] as the molecule, how does the EC50 read?
Answer: 14.7 µM

Question: With `CN(C)S(=O)(=O)Nc1ccc(C(F)(F)F)cc1C(=O)NC1CC2CCC(C1)N2S(C)(=O)=O` (centres unmarked) [Example 174, 2-((N,N-dimethylsulfamoyl)amino)-N-(8-(methylsulfonyl)-8-azabicyclo[3.2.1]octan-3-yl)-5-(trifluoromethyl)benzamide] as the molecule, how does the EC50 read?
Answer: 108 µM

Question: How did the EC50 turn out when `CS(=O)(=O)Nc1cc(F)ccc1C(=O)NC12CC(Cl)(C1)C2` [Example 79, N-(3-chlorobicyclo[1.1.1]pentan-1-yl)-4-fluoro-2-(methylsulfonamido)benzamide] was run?
Answer: 21.2 µM

Question: Which EC50 does the source give for `CS(=O)(=O)Nc1cc(F)ccc1C(=O)NC12CCC(C#N)(CC1)CC2` [Example 198, N-(4-cyanobicyclo[2.2.2]octan-1-yl)-4-fluoro-2-(methylsulfonamido)benzamide] here?
Answer: ≥ 200 µM

Question: For `O=C(NC12CC(C(F)(F)F)(C1)C2)c1cc(C(F)(F)F)ccc1NS(=O)(=O)C1COC1` [Example 73, 2-(oxetane-3-sulfonamido)-5-(trifluoromethyl)-N-(3-(trifluoromethyl)bicyclo[1.1.1]pentan-1-yl)benzamide], which EC50 is on record?
Answer: 2.62 µM

Question: How did the EC50 turn out when `O=C(NC12CCC(C(F)(F)F)(CC1)CC2)c1cc(Cl)ccc1NS(=O)(=O)C1CCS(=O)(=O)CC1` [Example 207, 5-chloro-2-((1,1-dioxidotetrahydro-2H-thiopyran)-4-sulfonamido)-N-(4-(trifluoromethyl)bicyclo[2.2.2]octan-1-yl)benzamide] was run?
Answer: 8.12 µM

Question: With `CCP(=O)(CC)c1ccc(S(=O)(=O)Nc2cc(C(F)(F)F)ccc2C(=O)NC23CC4CC(CC(C#N)(C4)C2)C3)cc1` [Example 181] as the molecule, how does the EC50 read?
Answer: 114 µM

Question: How did the EC50 turn out when `CS(=O)(=O)Nc1cc(F)ccc1C(=O)NC12CCC(F)(CC1)CC2` [Example 199, 4-fluoro-N-(4-fluorobicyclo[2.2.2]octan-1-yl)-2-(methylsulfonamido)benzamide] was run?
Answer: ≥ 100 µM

Question: `CS(=O)(=O)c1ccc(S(=O)(=O)Nc2ccc(Cl)cc2C(=O)NC23CC(C(F)(F)F)(C2)C3)cc1` [Example 90, 5-chloro-2-((4-(methylsulfonyl)phenyl)sulfonamido)-N-(3-(trifluoromethyl)bicyclo[1.1.1]pentan-1-yl)benzamide] was tested. Which EC50 did it give?
Answer: 2.67 µM

Question: With `N#CC12CCC(NC(=O)c3cc(C(F)(F)F)ccc3NS(=O)(=O)C3COC3)(CC1)CC2` [Example 75, N-(4-cyanobicyclo[2.2.2]octan-1-yl)-2-(oxetane-3-sulfonamido)-5-(trifluoromethyl)benzamide] as the molecule, how does the EC50 read?
Answer: 25.9 µM

Question: `CN(C)S(=O)(=O)Nc1cc(F)ccc1C(=O)NC12CC(C(F)(F)F)(C1)C2` [Example 188, 2-((N,N-dimethylsulfamoyl)amino)-4-fluoro-N-(3-(trifluoromethyl)bicyclo[1.1.1]pentan-1-yl)benzamide] was tested. Which EC50 did it give?
Answer: 3.29 µM

Question: For `N#CC12CCC(NC(=O)c3cc(F)ccc3NS(=O)(=O)CCC(F)(F)F)(CC1)CC2` [Example 220, N-(4-cyanobicyclo[2.2.2]octan-1-yl)-5-fluoro-2-((3,3,3-trifluoropropyl)sulfonamido)benzamide], which EC50 is on record?
Answer: 5.09 µM

Question: Which EC50 does the source give for `CN(C)S(=O)(=O)Nc1ccc(C(F)(F)F)cc1C(=O)NC12CC3CC(CC(C#N)(C3)C1)C2` [Example 177, N-((1R,5R)-3-cyanoadamantan-1-yl)-2-((N,N-dimethylsulfamoyl)amino)-5-(trifluoromethyl)benzamide] here?
Answer: 1.86 µM

Question: With `O=C(NC12CC(C(F)(F)F)(C1)C2)c1ccc(F)cc1NS(=O)(=O)c1ncccn1` [Example 149, 4-fluoro-2-(pyrimidine-2-sulfonamido)-N-(3-(trifluoromethyl)bicyclo[1.1.1]pentan-1-yl)benzamide] as the molecule, how does the EC50 read?
Answer: ≥ 20 µM

Question: For `CS(=O)(=O)c1ccc(S(=O)(=O)Nc2cc(Br)ccc2C(=O)NC23CC(C(F)(F)F)(C2)C3)cc1` [Example 46, 4-bromo-2-((4-(methylsulfonyl)phenyl)sulfonamido)-N-(3-(trifluoromethyl)bicyclo[1.1.1]pentan-1-yl)benzamide], which EC50 is on record?
Answer: 3.48 µM

Question: For `CS(=O)(=O)Nc1ccc(C(F)(F)F)cc1C(=O)NC12CC(C#N)(C1)C2` [Example 165, N-(3-cyanobicyclo[1.1.1]pentan-1-yl)-2-(methylsulfonamido)-5(trifluoromethyl)benzamide], which EC50 is on record?
Answer: 20.8 µM
